# Assay results taken from patent US6469028B1, “Synthesis and use of retinoid compounds having negative hormone and/or anatgonist activities” (Allergan, Inc., priority 1995, dated 2002).
# What was measured:
# [1] = biological target: T1, RARα (Homo sapiens, UniProt P10276); experiment: Holoreceptor transactivation assay; format: cell-based; design: expressed in transfected cells; host or cells: CV1 cells; conditions: relative to all trans retinoic acid; read-out: Transactivation Assay Efficacy (% of RA activity) RARα
# T1 sequence (P10276 1-462): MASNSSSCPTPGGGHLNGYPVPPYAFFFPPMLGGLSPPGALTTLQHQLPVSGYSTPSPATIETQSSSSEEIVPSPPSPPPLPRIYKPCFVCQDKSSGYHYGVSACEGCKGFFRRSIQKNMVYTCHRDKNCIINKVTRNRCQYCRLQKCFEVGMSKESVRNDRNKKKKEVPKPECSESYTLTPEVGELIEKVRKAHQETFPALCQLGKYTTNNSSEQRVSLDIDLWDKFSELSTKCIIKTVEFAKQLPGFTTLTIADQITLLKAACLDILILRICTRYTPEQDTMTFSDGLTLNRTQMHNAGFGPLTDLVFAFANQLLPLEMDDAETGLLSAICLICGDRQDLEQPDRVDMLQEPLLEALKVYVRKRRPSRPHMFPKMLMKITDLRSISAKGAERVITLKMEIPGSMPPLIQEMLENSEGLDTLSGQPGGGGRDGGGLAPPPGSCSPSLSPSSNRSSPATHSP
# From the text: (§1) A holoreceptor transactivation assay and a ligand binding assay which measure the antagonist/agonist like activity of the compounds of the invention, or their ability to bind to the several retinoid receptor subtypes, respectively, are described in published PCT Application No. WO93/11755 (particularly on pages 30-33 and 37-41) published on Jun. 24, 1993, the specification of which is also incorporated herein by reference. A description of the holoreceptor transactivation assay is also provided below.
# (§2) CV1 cells (5,000 cells/well) were transfected with an RAR reporter plasmid MTV-TREp-LUC (50 ng) along with one of the RAR expression vectors (10 ng) in an automated 96-well format by the calcium phosphate procedure of Heyman et al. Cell 68: 397-406. For RXR-α and RXR-γ transactivation assays, an RXR-responsive reporter plasmid CRBPII-tk-LUC (50 ng) along with the appropriate RXR expression vectors (10 ng) was used substantially as described by Heyman et al. above, and Allegretto et al. J. Biol. Chem. 268: 26625-26633. For RXR-β transactivation assays, an RXR-responsive reporter plasmid CPRE-tk-LUC ([…]) along with RXR-β expression vector ([…]) was used as described in above. These reporters contain DRI elements from human CRBPII and certain DRI elements from promotor, respectively (see Mangelsdorf et al. The Retinoids: Biology Chemistry and Medicine, pp. 319-349, Raven Press Ltd., New York and Heyman et al., cited above). A β-galactosidase (50 ng) expression vector was used as an internal control in the transfections to normalize for variations in transfection efficiency. The cells were transfected in triplicate for 6 hours, followed by incubation with retinoids for 36 hours, and the extracts were assayed for luciferase and […] activities. The detailed experimental procedure for holoreceptor transactivations has been described in Heyman et al. above, and Allegretto et al. cited above. The results obtained in this assay are expressed in EC50 numbers, as they are also in the chimeric receptor transactivation assay. The Heyman et al. Cell 68: 397-406, Allegretto et al. J. Biol. Chem. 268: 26625-26633, and Mangelsdorf et al. The Retinoids: Biology, Chemistry, and Medicine, pp. 319-349, Raven Press Ltd., New York, are expressly incorporated herein by reference. The results of ligand binding assay are expressed in Kd numbers. (See Cheng et al. Biochemical Pharmacology 22: 3099-3108, expressly incorporated herein by reference.)
# (§3) A compound should not cause significant activation of a reporter gene through a given receptor subtype (RAR-α, RAR-β or RAR-γ) in the holoreceptor transactivation assay, in order to qualify as an RAR antagonist with utility in the present invention.
# [2] = biological target: T2, RARγ (Homo sapiens, UniProt P13631); experiment: Holoreceptor transactivation assay; format: cell-based; design: expressed in transfected cells; host or cells: CV1 cells; conditions: relative to all trans retinoic acid; read-out: Transactivation Assay Efficacy (% of RA activity) RARγ
# T2 sequence (P13631 1-454): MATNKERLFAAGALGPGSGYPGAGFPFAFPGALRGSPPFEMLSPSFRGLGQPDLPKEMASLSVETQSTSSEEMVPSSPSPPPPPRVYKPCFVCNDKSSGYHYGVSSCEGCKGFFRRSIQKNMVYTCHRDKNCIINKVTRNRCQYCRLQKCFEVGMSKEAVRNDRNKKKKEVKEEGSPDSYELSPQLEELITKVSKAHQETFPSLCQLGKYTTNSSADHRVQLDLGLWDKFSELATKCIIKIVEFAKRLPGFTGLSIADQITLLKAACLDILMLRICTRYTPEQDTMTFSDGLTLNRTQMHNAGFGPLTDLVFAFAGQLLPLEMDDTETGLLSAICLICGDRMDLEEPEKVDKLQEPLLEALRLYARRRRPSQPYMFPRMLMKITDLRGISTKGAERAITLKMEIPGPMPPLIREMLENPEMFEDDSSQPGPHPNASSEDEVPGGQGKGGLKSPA
# From the text: as §1, §2, §3
Compound,Emax [1] [%],Emax [2] [%]
"Cc1ccc(C2=CCC(C)(C)c3ccc(C#Cc4ccc(C(=O)O)cc4)cc32)cc1 [Compound 60, 4-[(5,6-dihydro-5,5-dimethyl-8-(4-methylphenyl)-2-naphthalenyl)ethynyl]benzoic acid]",0,4
"CC1(C)CC=C(c2ccc(C(F)(F)F)cc2)c2cc(C#Cc3ccc(C(=O)O)cc3)ccc21 [Compound 23, 4-[(5,6-Dihydro-5,5-dimethyl-8-(4-trifluoromethylphenyl)-2-naphthalenyl)ethynyl]benzoic acid]",0,3
"Cc1ccc(C2=CCC(C)(C)c3ccc(C(=S)Nc4ccc(C(=O)O)c(F)c4)cc32)cc1 [Compound 63, 2-fluoro-4-[[(5,6-dihydro-5,5-dimethyl-8-(4-methylphenyl)-2-naphthalenyl)thiocarbonyl]amino]-benzoic acid]",2,7
"Cc1ccccc1C1=CCC(C)(C)c2ccc(C#Cc3ccc(C(=O)O)cc3)cc21 [Compound 27, 4-[(5,6-Dihydro-5,5-dimethyl-8-(2-methylphenyl)-2-naphthalenyl)ethynyl]benzoic acid]",9,6
"CC(/C=C/C=C(\C)c1ccc2c(c1)C(c1ccc(C)cc1)=CCC2(C)C)=C\C(=O)O [Compound 52, (E,E,E)-3-methyl-7-(5,6-dihydro-5,5-dimethyl-8-(4-methylphenyl)-2-naphthalenyl)-2,4,6-octatrienoic acid]",0,3
"Cc1ccc(C2=CCC(C)(C)c3ccc(C(=O)Nc4ccc(C(=O)O)c(F)c4)cc32)cc1 [Compound 41, 2-Fluoro-4-[[(5,6-dihydro-5,5-dimethyl-8-(4methylphenyl)-2-naphthalenyl)carbonyl]amino]-benzoic acid]",3,6
"Cc1ccc(C2=CCC(C)(C)c3ccc(N=Nc4ccc(C(=O)O)cc4)cc32)cc1 [Compound 46b, 4-[(5,6-dihydro-5,5-dimethyl-8-(4-methylphenyl)-2-naphthalenyl)azo]-benzoic acid]",4,3
Cc1ccc(C2=CCC(C)(C)c3ccc(/C=C/c4ccc(C(=O)O)cc4)cc32)cc1 [Compound 45],2,7
"Cc1cc(C)cc(C2=CCC(C)(C)c3ccc(C#Cc4ccc(C(=O)O)cc4)cc32)c1 [Compound 24, 4-[(5 6-Dihydro-5,5-dimethyl-8-(3,5-dimethylphenyl)-2-naphthalenyl)ethynyl]benzoic acid]",3,4
"CC1(C)CC=C(c2ccccc2)c2ccc(C(=O)C=Cc3ccc(C(=O)O)cc3)cc21 [Compound 103, 4-[3-oxo-3-(7,8-dihydro-5-phenyl-8,8-dimethyl-2-naphthalenyl)-1-propenyl]-benzoic acid]",4,7
"Cc1ccc(C2=CCC(C)(C)c3ccc(C(=O)Nc4ccc(C(=O)O)cc4)cc32)cc1 [Compound 36, 4-[[(5,6-Dihydro-5,5-dimethyl-8-(4-methylphenyl)-2-naphthalenyl)carbonyl]amino]-benzoic acid]",1,0
"Cc1ccc(C2=CCC(C)(C)c3ccc(C(=O)Oc4ccc(C(=O)O)cc4)cc32)cc1 [Compound 39, 4-[[(5,6-Dihydro-5,5-dimethyl-8-(4-methylphenyl)-2-naphthalenyl)carbonyl]oxy]-benzoic acid]",1,9
"Cc1ccc(C2=CCC(C)(C)c3ccc(C#Cc4ccc(C(=O)O)cc4)cc32)s1 [Compound 34, 4-[(5,6-Dihydro-5,5-dimethyl-8-(5-methyl-2-thienyl)-2-naphthalenyl)ethynyl]benzoic acid]",3,2
"Cc1cnc(C2=CCC(C)(C)c3ccc(C#Cc4ccc(C(=O)O)cc4)cc32)s1 [Compound 30, 4-[(5,6-Dihydro-5,5-dimethyl-8-(5-methylthiazol-2-yl)-2-naphthalenyl)ethynyl]benzoic acid]",3,1
"COc1ccc(C2=CCC(C)(C)c3ccc(C#Cc4ccc(C(=O)O)cc4)cc32)cc1 [Compound 22, 4-[(5,6-Dihydro-5,5-dimethyl-8-(4-methoxyphenyl)-2-naphthalenyl)ethynyl]benzoic acid]",0,2
"Cc1csc(C2=CCC(C)(C)c3ccc(C#Cc4ccc(C(=O)O)cc4)cc32)n1 [Compound 31, 4-[(5,6-Dihydro-5,5-dimethyl-8-(4-methylthiazol-2-yl)-2-naphthalenyl)ethynyl]benzoic acid]",4,2
Cc1nc(C2=CCC(C)(C)c3ccc(C#Cc4ccc(C(=O)O)cc4)cc32)sc1C [Compound 32],0,2

# Second part, the compound after the results:
Emax [1] [%],Emax [2] [%],Compound
3,0,"Cc1cccc(C2=CCC(C)(C)c3ccc(C#Cc4ccc(C(=O)O)cc4)cc32)c1 [Compound 20, 4-[(5,6-Dihydro-5,5-dimethyl-8-(3-methylphenyl)-2-naphthalenyl)ethynyl]benzoic acid]"
0,3,"CC1(C)CC=C(c2ccccn2)c2cc(C#Cc3ccc(C(=O)O)cc3)ccc21 [Compound 19, 4-[(5,6-Dihydro-5,5-dimethyl-8-(2-pyridyl)-2-naphthalenyl)ethynyl]benzoic acid]"
1,0,"CC1(C)CC=C(c2cccnc2)c2cc(C#Cc3ccc(C(=O)O)cc3)ccc21 [Compound 26, 4-[(5,6-Dihydro-5,5-dimethyl-8-(3-pyridyl)-2-naphthalenyl)ethynyl]benzoic acid]"
2,2,"CC1(C)CC=C(c2cccc(O)c2)c2cc(C#Cc3ccc(C(=O)O)cc3)ccc21 [Compound 28, 4-[(5,6-Dihydro5,5-dimethyl-8-(3-hydroxyphenyl)-2-naphthalenyl)ethynyl]benzoic acid]"
0,11,"CC1(C)CC=C(c2ccc(O)cc2)c2cc(C#Cc3ccc(C(=O)O)cc3)ccc21 [Compound 29, 4-[(5,6-Dihydro-5,5-dimethyl-8-(4-hydroxyphenyl)-2-naphthalenyl)ethynyl]benzoic acid]"
2,3,"CC1(C)CC=C(c2ccc(Cl)cc2)c2cc(C#Cc3ccc(C(=O)O)cc3)ccc21 [Compound 25, 4-[(5,6-Dihydro-5,5-dimethyl-8-(4-chlorophenyl)-2-naphthalenyl)ethynyl]benzoic acid]"
4,0,"Cc1ccc(C2=CCC(C)(C)c3ccc(C#Cc4ccc(C(=O)O)cc4)cc32)cn1 [Compound 18, 4-[(5,6-Dihydro-5,5-dimethyl-8-(2-methyl-5-pyridyl)-2-naphthalenyl)ethynyl]benzoic acid]"
